Reference: patent US11013696B2, “Lipids and lipid compositions for the delivery of active agents” (Novartis AG, priority 2013, dated 2021)

System: Factor VII
Assay: Mouse Factor VII dosing and plasma Factor VII activity assay (FVII siRNA LNP, IV)
Type: in vivo
Conditions: 0.03 mpk, XXX mice
Procedure: Female CD-1 mice were received from Harlan Labs and maintained on standard lab chow and water ad libitum. The animals weighed approximately 25 gr at time of dosing. Formulated Factor VII siRNA was administered as a single dose intravenously via the lateral tail vein. Approximately 48 hours after injection, the mice were euthanized by CO2 inhalation followed by exsanguination through the vena cava.
Plasma collected from injected mice was assayed for Factor VII enzyme activity using the Biophen FVII kit from Hyphen Biomedical (catalog number 221304). An assay standard curve was prepared using pooled plasma aliquots from the vehicle control animals. All samples were diluted to fall within the linear range of the standard curve and Factor VII activity relative to control plasma was reported.
Lipid nanoparticles comprising lipid compounds of formula (I) and the FVII siRNA duplex sequence listed above were tested in the Factor VII Activity Assay. The results of this assay are given in Table 34 below as a percent knock down of plasma Factor VII enzyme activity at a dose of 0.3 mg/kg and 0.03 mg/kg.

**Q.** `CCCCC/C=C\C/C=C\CCCCCCCC(=O)OCC(COC(=O)CCCCCCC/C=C\C/C=C\CCCCC)OC(=O)CCC(CCCCCCCCCCCC)OC(=O)OCCCN(C)C` (stereo not shown) [Example 80, (9Z,9′Z,12Z,12′Z)-2-((4-(((3-(dimethylamino)propoxy)carbonyl)oxy)hexadecanoyl)oxy)propane-1,3-diyl bis(octadeca-9,12-dienoate)] was tested. Which “FVII knock-down following IV injection of encapsulated siRNA” value did it give?
**A.** The value was 95%/0.03.
